In one experiment the target is T1, HER2 (Homo sapiens, UniProt P04626).
T1 construct: the human mammary carcinoma line BT474 (ATCC HTB2) expressing HER2; endogenous in cells; host or cells: BT474 human mammary carcinoma cells
As to the kind of experiment: HER2-BT474 whole cell kinase ELISA. It is filed as cell-based. The method, then:
HER2-BT474 assays measuring whole cell HER2 activity was carried out as described below:
All the following steps are at room temperature and aseptically, unless stated otherwise. All ELISA plate washing is by rinsing with distilled water three times and once with TBST.
Incubate the cells in 5% CO2 at 37° C. overnight.
2. ELISA Plate Coating and Blocking

The target of the next experiment is T2, human EGF receptor (Homo sapiens, UniProt P00533).
T2 construct: expressed in transfected cells; host or cells: NIH3T3 clone C7 (EGFR/C7; mouse fibroblasts)
The experiment in a line: EGF-receptor whole cell kinase assay (EGFR-3T3). Format: cell-based. The method, then: The following target cells were used for cellular kinaseassays: NIH3T3 clone C7 (Honegger et al., supra) engineered to over-express human EGF receptor; NIH3T3 cells engineered to over-express a chimeric receptor containing the EGFR extracellular domain and the HER2 intracellular kinase domain; the human mammary carcinoma line BT474 (ATCC HTB2) expressing HER2; and the human glioblastoma line U1242 that expresses PDGFR-β. Growth assays were carried out using human mammary epithelial SKBR3 (ATCC HTB30) cells, SKOV3 (ATCC HTB77) human ovarian cancer cell line, A431 cells, MCF7 human breast carcinoma cells, MCF7 cells overexpress the HER2 kinase (MCF7-HER2), NIH3T3 cells, and NIH3T3 cells overexpressing the HER2 kinase (3T3-HER2).
Unless otherwise stated the effect of various compounds on receptor tyrosine kinases were assayed as described in this section.
1. EGF-receptor Whole Cell Kinase Assay
EGFR kinase activity (EGFR-3T3 assay) in whole cells was measured as described below:
The following protocol was used:
A. Coat ELISA plates (Corning, 96 well, Cat. #25805-96) with 05-101 antibody at 0.5 μg per well in PBS, 150 μl final volume/well, and store overnight at 4° C. Coated plates are good for up to 10 days when stored at 4° C.
B. On day of use, remove coating buffer and replace with blocking buffer (5% Carnation Instant Non-Fat Dry Milk in PBS). Incubate the plate, shaking, at room temperature (about 23° C. to 25° C.) for 30 minutes. Just prior to use, remove blocking buffer and wash plate 4 times with TBST buffer.
A. EGFR/C7 cell line (Honegger, et al., Cell 51:199-209, 1987) can be use for this assay.
B. Choose dishes having 80-90% confluence for the experiment. Trypsinize cells and stop reaction by adding 10% CS DMEM medium. Suspend cells in DMEM medium (10% CS DMEM medium) and centrifuge once at 1000 rpm, and once at room temperature for 5 minutes.
C. Resuspend cells in seeding medium (DMEM, 0.5% bovine serum), and count the cells using trypan blue. Viability above 90% is acceptable. Seed cells in DMEM medium (0.5% bovine serum) at a density of 10,000 cells per well, 100 μl per well, in a 96 well microtiter plate. Incubate seeded cells in 5% CO2 at 37° C. for about 40 hours.
A. Check seeded cells for contamination using an inverted microscope. Dilute drug stock (10 mg/ml in DMSO) 1:10 in DMEM medium, then transfer 5 μl to a test well for a final drug dilution of 1:200 and a final DMSO concentration of […]. Control wells receive DMSO alone. Incubate in 5% CO2 at 37° C. for one hour.
B. Prepare EGF ligand: dilute stock EGF in DMEM so that upon transfer of 10 μl dilute EGF (1:12 dilution), 25 nM final concentration is attained.
C. Prepare fresh HNTG* sufficient for 100 μl per well; and place on ice.
D. After two hours incubation with drug, add prepared EGF ligand to cells, 10 μl per well, to yield a final concentration of 25 nM. Control wells receive DMEM alone. Incubate, shaking, at room temperature, for 5 minutes.
E. Remove drug, EGF, and DMEM. Wash cells twice with PBS. Transfer HNTG* to cells, 100 μl per well. Place on ice for 5 minutes. Meanwhile, remove blocking buffer from other ELISA plate and wash with TBST as described above.
F. With a pipette tip securely fitted to a micropipettor, scrape cells from plate and homogenize cell material by repeatedly aspirating and dispensing the HNTG* lysis buffer. Transfer lysate to a coated, blocked, and washed ELISA plate. Incubate shaking at room temperature for one hour.
G. Remove lysate and wash 4 times with TBST. Transfer freshly diluted anti-Ptyr antibody to ELISA plate at 100 μl per well. Incubate shaking at room temperature for 30 minutes in the presence of the anti-Ptyr antiserum (1:3000 dilution in TBST).
H. Remove the anti-Ptyr antibody and wash 4 times with TBST. Transfer the freshly diluted TAGO anti-rabbit IgG antibody to the ELISA plate at 100 μl per well.

[1] abbreviates: Table VI, cellular kinase assay, read-out: HER2-BT474.
Where [2] appears, read: Table VI, cellular kinase assay, read-out: EGFR-3T3.
[3] abbreviates: Table V, read-out: Estimated IC50 Cellular Kinase Assays HER2 (BT474).
The mark [4] stands for this setting: Table V, read-out: Estimated IC50 Cellular Kinase Assays EGFR (EGF-3T3).

Where “and” joins values, the source holds several entries; their conditions need not be identical. Identical values can stand only once. Like-named read-outs stand apart in the source and are kept apart here. Some results are limits rather than exact numbers.

For the compound `CC(C)(C)c1cc(/C=C(\C#N)S(=O)(=O)c2ccccn2)cc(C(C)(C)C)c1O` [Compound M34, (E)-3-(3,5-di-t-Butyl-4-hydroxyphenyl)-2-[(pyrid-2-yl)sulfonyl]acrylonitrile], the values for the IC50 at HER2 (setting [1]) and at human EGF receptor (setting [2]) were 0.11 µM and over 100 µM, respectively.

On to `CC(C)c1cc(/C=C(\C#N)S(=O)(=O)c2ccccn2)cc(C(C)C)c1O` [Compound M26], for which the IC50 was 9.6 µM at HER2 (setting [1]) and over 100 µM on human EGF receptor (setting [2]).

`CC(C)(C)c1cc(/C=C(\C#N)C(N)=S)cc(C(C)(C)C)c1O` [Compound M11]: the IC50 at HER2 (setting [3]) is under 3 µM; on HER2 (setting [1]) it was 3.1 µM; on human EGF receptor (setting [4]), 40 µM; at human EGF receptor (setting [2]), 21 µM.

In the case of `CC(C)(C)c1cc(/C=C(\C#N)S(=O)(=O)c2ccccc2)cc(C(C)(C)C)c1O` [Compound M33, (E)-3-(3,5-di-t-Butyl-4-hydroxyphenyl)-2-(phenylsulfonyl)acrylonitrile], the IC50 is 0.17 µM on HER2 (setting [1]) and over 100 µM on human EGF receptor (setting [2]).

As for `N#C/C(=C\c1ccc(O)c(O)c1)C(=S)NCc1ccccc1` [Compound M13], the IC50 is 14 µM on HER2 (setting [3]), 14 µM at HER2 (setting [1]), over 100 µM at human EGF receptor (setting [4]) and over 100 µM on human EGF receptor (setting [2]). Besides, at HER2 (as described in Example 1), the “fold greater inhibition of HER2 compared to EGF-R” value was at least 7 fold.

`N#C/C(=C\c1ccc(O)c(O)c1)C(=O)Nc1cccc(C(F)(F)F)c1` [Compound M15]: the IC50 on HER2 (setting [3]) is 16 µM; at HER2 (setting [1]), 16 µM; at human EGF receptor (setting [4]) it was over 100 µM; at human EGF receptor (setting [2]) it was over 100 µM.

Consider `CC(C)c1cc(/C=C(\C#N)C(=O)NCCCc2ccccc2)cc(C(C)C)c1O` [Compound M21, (E)-3-(3,5-Diisopropyl-4-hydroxyphenyl)-2-[(3-phenyl-n-propyl)aminocarbonyl]acrylonitrile], for which the IC50 on HER2 (setting [1]) is 7.4 µM; on human EGF receptor (setting [2]) it was over 100 µM.

Consider `CC(C)c1cc(/C=C(\C#N)C(=S)NCCCc2ccccc2)cc(C(C)C)c1O` [Compound M24, (E)-3-(3,5-Diisopropyl-4-hyrdroxyphenyl)-2-[(3-phenyl-n-propyl)aminothiocarbonyl]acrylonitrile], for which the IC50 was 3.1 µM on HER2 (setting [1]) and over 50 µM at human EGF receptor (setting [2]).

On to `CC(C)(C)c1cc(/C=C(\C#N)S(=O)(=O)CC#N)cc(C(C)(C)C)c1O` [Compound M36, (E)-3-(3,5-di-t-Butyl-4-hydroxyphenyl)-2-(cyanomethylsulfonyl)acrylonitrile], for which the IC50 at HER2 (setting [1]) was found to be 0.4 µM; at human EGF receptor (setting [2]) it was 56 µM.

For the compound `Cc1cc(/C=C(\C#N)S(=O)(=O)c2ccccn2)cc(C)c1O` [Compound M32], the figures for the IC50 at HER2 (setting [1]) and at human EGF receptor (setting [2]) were 7.3 µM and 64 µM, respectively.

As for `N#C/C(=C\c1cc(O)c(O)c(I)c1)C(=O)NCCCc1ccccc1` [Compound M16], the IC50 on HER2 (setting [3]) was 18 µM and 18.2 µM; on HER2 (setting [1]) it was 26 µM; at human EGF receptor (setting [4]), 4 µM and 4.4 µM; at human EGF receptor (setting [2]), 9 µM.

Consider `Cc1cc(/C=C(\C#N)S(=O)(=O)c2ccccc2)cc(C)c1O` [Compound M31], for which the IC50 is 5.4 µM at HER2 (setting [1]) and over 100 µM at human EGF receptor (setting [2]). The “activity in cellular assays” value on HER2 (cellular assays of the Examples, versus analogous compounds having bulkier R1 and R3 groups) is on record as “less activity”.

For `CC(C)c1cc(/C=C(\C#N)S(=O)(=O)CC#N)cc(C(C)C)c1O` [Compound M27], the IC50 at HER2 (setting [1]) is 4.6 µM; at human EGF receptor (setting [2]), over 50 µM.

Take “(E,E)-2-[[-Cyano-2-(3,5-diisopropyl-4-hydroxyphenyl)ethenyl]sulfonyl]-3-(3,5-di-t-butyl-4-hydroxyphenyl)acrylonitrile [Compound M37]”: the IC50 on HER2 (setting [1]) was 0.85 µM; at human EGF receptor (setting [2]), over 100 µM.

Consider `CC(C)c1cc(/C=C(\C#N)S(=O)(=O)/C(C#N)=C/c2cc(C(C)C)c(O)c(C(C)C)c2)cc(C(C)C)c1O` [Compound M29], for which the IC50 at HER2 (setting [1]) was 1.4 µM; on human EGF receptor (setting [2]) it was over 50 µM.

Take `CC(C)c1cc(/C=C(\C#N)S(=O)(=O)c2ccccc2)cc(C(C)C)c1O` [Compound M30]: the IC50 is 0.65 µM at HER2 (setting [1]) and 61 µM at human EGF receptor (setting [2]).

As to `CC(C)(C)c1cc(/C=C(\C#N)C(=O)NCCCc2ccccc2)cc(C(C)(C)C)c1O` [Compound M20, (E)-3-(3,5-di-t-Butyl-4-hydroxyphenyl)-2-[(3-phenyl-n-propyl)aminocarbonyl]acrylonitrile], the IC50 on HER2 (setting [1]) was 3 µM; at human EGF receptor (setting [2]) it was over 100 µM.

Consider `CC(C)c1cc(C=C(C#N)C(N)=C(C#N)C#N)cc(C(C)C)c1O` [Compound M22, (E)-2-(1-Amino-2,2-dicyanoethenyl-3-(3,5-diisopropyl-4-hydroxyphenyl)acrylonitrile)], for which the IC50 at HER2 (setting [1]) was 4.2 µM; on human EGF receptor (setting [2]), over 50 µM.

Regarding `CC(C)(C)c1cc(/C=C(\C#N)C(=O)Nc2ccc(C(F)(F)F)cc2)cc(C(C)(C)C)c1O` [Compound M35, (E)-3-(3,5-di-t-Butyl-4-hydroxyphenyl)-2-[(4-trifluoromethyl)phenylaminocarbonyl]acrylonitrile], the IC50 at HER2 (setting [1]) was 0.29 µM; at human EGF receptor (setting [2]), over 100 µM.

The record behind these values is US6596878B2, “Methods and compositions for inhibiting cell proliferative disorders” (Yissum Research & Development Company of the Hebrew …, priority 1994, dated 2003).
